From patent US5670503A, “Pyrazole derivatives” (Fujisawa Pharmaceutical Co., Ltd., priority 1993, dated 1997)

Key:
[1] = tested on: production of Interleukin-1 (IL-1); assay: Inhibitory activity on the production of Interleukin-1 (IL-1) in LPS-stimulated human peripheral blood monocyte; type: cell-based; settings: 48 h; purified human peripheral blood monocyte, LPS 1 μg/10^4 cells, 2 days at 37° C., IL-1β ELISA of supernatant; read-out: IC50 (inhibition of IL-1 production)
Description: Purified human peripheral blood monocyte were stimulated with bacterial lipopolysaccharide (1 μg/10^4 cells) in the absence or presence of appropriately diluted test compound for 2 days at 37° C. in a humidified 5% CO2 atmosphere. Culture supernatants were tested for IL-1 ELISA assay.
Test compound was dissolved in absolute DMSO (dimethyl sulfoxide) to achieve 10 mM stock solutions and was subsequently diluted in serum free RPMI1640.
IL-1 levels were quantified by a commercial ELISA kit (Ohtsuka assay, Japan) using a sandwich technique. The sensitivity levels for the detection of IL-1β were 20 pg/ml.
(§1) The inhibitory concentration that caused a 50% inhibition (IC50) was calculated by regression analysis of the dose-response data.

[2] = tested on: production of tumor necrosis factor (TNF); assay: Inhibitory activity on the production of tumor necrosis factor (TNF) in LPS-stimulated human peripheral blood monocyte; type: cell-based; settings: 48 h; purified human peripheral blood monocyte, LPS 1 μg/10^4 cells, 2 days at 37° C., TNF ELISA of supernatant; read-out: IC50 (inhibition of TNF production)
Description: Purified human peripheral blood monocyte were stimulated with bacterial lipopolysaccharide (1 μg/10^4 cells) in the absence or presence of appropriately diluted test compound for 2 days at 37° C. in a humidified 5% CO2 atmosphere. Culture supernatants were tested for TNF ELISA assay.
TNF levels were quantified by a commercial ELISA kit (Endogen, Inc. USA) using a sandwich technique. The sensitivity levels for the detection of TNF were 12 pg/ml.
as §1

| SMILES | IC50 [1] [nM] | IC50 [2] [nM] |
| --- | --- | --- |
| CC(C)(C)CN1CCn2nc(-c3ccc(F)cc3)c(-c3ccncc3)c2N1 [Example 16-(5), 7-(4-Fluorophenyl)-2-neopentyl-8-(pyridin-4-yl)-1,2,3,4-tetrahydropyrazolo[5,1-c][1,2,4]triazine] | 92 | 91 |
| Fc1ccc(-c2nn3c(c2-c2ccncc2)NN(C2CCCCC2)CC3)cc1 [Example 18-(2), 2-Cyclohexyl-7-(4-Fluorophenyl)-8-(pyridin-4-yl)-1,2,3,4-tetrahydropyrazolo[5,1-c][1,2,4]triazine] | 88 | 110 |
